For 62 compounds, IC50 results are on record in patent US20260001871A1, “TRIAZOLE DERIVATIVES AS MODULATORS OF MAS-RELATED G-PROTEIN RECEPTOR D” (ESCIENT PHARMACEUTICALS, INC., priority 2022, published 2026).

This assay has as its target human MRGPRD (Homo sapiens, UniProt Q8TDS7). The assay can be described thus: MRGPRD antagonist activity, IP-One HTRF assay in CHO cells stably expressing human MRGPRD (versus 100 μM β-Alanine agonist). In kind it is cell-based. An outline of the steps:
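CHO cells stably expressing human MRGPRD, plated overnight at 37 °C, were treated with antagonist plus agonist in Tris-HCl/NaCl/LiCl buffer pH 8, incubated 1 h at 37 °C then 1 h at room temperature. IP-1 accumulation read by HTRF; IC50 and percent antagonism of maximum efficacy averaged, SEM reported.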
Background: In TR-FRET formats the signal depends on donor and acceptor labels being close together.

human MRGPRD, sequence (Q8TDS7 whole entry): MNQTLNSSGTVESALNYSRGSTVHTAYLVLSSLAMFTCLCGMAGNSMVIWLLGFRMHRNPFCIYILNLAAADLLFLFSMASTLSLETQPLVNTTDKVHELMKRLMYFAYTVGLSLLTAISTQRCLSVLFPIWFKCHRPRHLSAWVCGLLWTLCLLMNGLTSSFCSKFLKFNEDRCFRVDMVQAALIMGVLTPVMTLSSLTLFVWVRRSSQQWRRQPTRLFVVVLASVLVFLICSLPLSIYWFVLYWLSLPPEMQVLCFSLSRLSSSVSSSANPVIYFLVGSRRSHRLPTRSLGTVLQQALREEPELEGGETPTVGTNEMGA

For `CC(=O)c1ccc(-n2nnc(C(=O)Nc3ccncc3)c2C2CC2)cc1` [Compound 2-10], the IC50 (as a rule, the concentration that inhibits the measured activity by half) lay within 1000 to 3000 nM.

`Cc1csc(CNC(=O)c2nnn(-c3ccc(-c4ccccc4)cc3)c2C2CC2)n1` [Compound 14-21] came in with an IC50 of 500 to 1000 nM.

Take `Cc1n[nH]c2ncnc(NC(=O)c3nnn(-c4ccc(-c5ccccc5)cc4)c3C3CC3)c12` [Compound 14-25]: the IC50 was 500 to 1000 nM.

Compound `O=C(NC1(c2cncc(Cl)c2)CC1)c1nnn(-c2ccc(-c3cnn(Cc4ccccc4)c3)cc2)c1C1CC1` [Compound 18-19] gave an IC50 of 1000 to 3000 nM.

Compound `CC(=O)c1ccc(-c2ccc(-n3nnc(C(=O)Nc4ccncc4)c3C3CC3)cc2)cc1F` [Compound 7-104] gave an IC50 of 100 to 500 nM.

For `O=C(Nc1ccncc1)c1nnn(-c2ccc(-c3cnn(C(F)F)c3)cc2)c1C1CC1` [Compound 7-137], the IC50 is 500 to 1000 nM.

In the case of `N#Cc1cccc(-c2cccc(-n3nnc(C(=O)Nc4ccncc4)c3C3CC3)c2)c1` [Compound 7-293], the IC50 was in the range of 1000 to 3000 nM.

`Cc1ccc(-n2nnc(C(=O)Nc3ccncc3)c2C2CC2)cc1C` [Compound 2-5] displayed an IC50 of 1000 to 3000 nM.

In the case of `Cn1cc(-c2ccc(-n3nnc(C(=O)Nc4ccncc4)c3C3CC3)cc2)c(C2CC2)n1` [Compound 7-218], the IC50 is more than 3000 nM.

`CC1(NC(=O)c2nnn(-c3ccc(-c4ccccc4)cc3)c2C2CC2)CCOCC1` [Compound 14-74] displayed an IC50 of more than 3000 nM.

As for `O=C(Nc1ccncc1)c1nnn(-c2cccc(-c3cnn(C4CCCC4)c3)c2)c1C1CC1` [Compound 7-266], the IC50 was 500 to 1000 nM.

Take `Cc1noc(C)c1-c1ccc(-n2nnc(C(=O)Nc3ccncc3)c2C2CC2)cc1` [Compound 7-40]: the IC50 is 100 to 500 nM.

The compound `O=C(Nc1ccncc1)c1nnn(-c2ccc(-c3ccc(C4CCC4)cc3)cc2)c1C1CC1` [Compound 7-127] had an IC50 of 500 to 1000 nM.

With `CCc1ccc(-n2nnc(C(=O)Nc3ccncc3)c2C2CC2)cc1` [Compound 3-2], the IC50 lay within 1000 to 3000 nM.

On to `O=C(Nc1ccncc1)c1nnn(-c2cccc(-c3cnn4c3CCC4)c2)c1C1CC1` [Compound 7-283], for which the IC50 lay within 500 to 1000 nM.

As for `CCn1cc(CNC(=O)c2nnn(-c3ccc(-c4c(C)nn5cccnc45)cc3)c2C2CC2)cn1` [Compound 10-6], the IC50 was in the range of 100 to 500 nM.

The compound `O=C(Nc1ccncc1)c1nnn(-c2cccc(-c3ccc(Cl)cc3)c2)c1C1CC1` [Compound 7-307] gave an IC50 of 1000 to 3000 nM.

`Cc1ccc(CNC(=O)c2nnn(-c3ccc(-c4ccc(C#N)c(F)c4)cc3)c2C2CC2)cn1` [Compound 17-3, 1-(4′-cyano-3′-fluoro-[1,1′-biphenyl]-4-yl)-5-cyclopropyl-N-((6-methylpyridin-3-yl)methyl)-1H-1,2,3-triazole-4-carboxamide] registered an IC50 of 100 to 500 nM.

Turning to `COc1ccccc1-c1cccc(-n2nnc(C(=O)Nc3ccncc3)c2C2CC2)c1` [Compound 7-320], the IC50 fell in the range of 1000 to 3000 nM.

For `O=C(NCCc1ncn[nH]1)c1nnn(-c2ccc(-c3ccccc3)cc2)c1C1CC1` [Compound 14-9], the IC50 was more than 3000 nM.

For the compound `Cc1cc(NC(=O)c2nnn(C3CC=C(c4c(C)nn(-c5ccccc5)c4C)CC3)c2C2CC2)ccn1` (centres unmarked) [Compound 12-3], the concentration for half-maximal inhibition (IC50) lay in the range of 500 to 1000 nM.

In turn, `Cn1ncc2c(NC(=O)c3nnn(-c4ccc(-c5ccccc5)cc4)c3C3CC3)ncnc21` [Compound 14-79] had an IC50 of more than 3000 nM.

In turn, `CCn1cc(C2(NC(=O)c3nnn(-c4ccc(-c5ccc(C#N)c(F)c5)cc4)c3C3CC3)CC2)cn1` [Compound 18-14] displayed an IC50 of 100 to 500 nM.

Take `N#Cc1ccc(-c2ccc(-n3nnc(C(=O)NC4(c5cncc(F)c5)CC4)c3C3CC3)cc2)cc1` [Compound 18-18]: the IC50 is 1000 to 3000 nM.

In the case of `N#CCc1cccc(-c2ccc(-n3nnc(C(=O)Nc4ccncc4)c3C3CC3)cc2)c1` [Compound 7-30], the IC50 lay in the range of 100 to 500 nM.

`O=C(Nc1ccncc1)c1nnn(-c2ccc(-c3ccc4c(c3)CCC4)cc2)c1C1CC1` [Compound 7-64] returned an IC50 of 100 to 500 nM.

Compound `O=C(Nc1ccncc1)c1nnn(-c2ccc(-c3cccc(C(F)F)c3)cc2)c1C1CC1` [Compound 7-122] displayed an IC50 of 500 to 1000 nM.

As to `C[C@H](NC(=O)c1nnn(-c2ccc(-c3ccccc3)cc2)c1C1CC1)c1ccccc1` [Compound 14-86], the IC50 is more than 3000 nM.

The compound `Cc1cc(NC(=O)c2nnn(-c3ccc(-c4ccc(C#N)cc4)cc3)c2C(C)C)ccn1` [Compound 17-28] yielded a 50% inhibitory concentration (IC50) of 500 to 1000 nM.

Take `Nc1cc(-c2ccc(-n3nnc(C(=O)Nc4ccncc4)c3C3CC3)cc2)n[nH]1` [Compound 7-5]: the IC50 is more than 3000 nM.

As for `Cc1nn(-c2ccccc2)c(C)c1-c1ccc(-n2nnc(C(=O)Nc3ccncc3)c2C2CC2)cc1` [Compound 7-11], the half-inhibitory concentration (IC50) was less than 100 nM.

The compound `Cc1ccc(-n2nnc(C(=O)Nc3ccncc3)c2C2CC2)cc1-c1cnn(C(C)C)c1` [Compound 7-260] showed an IC50 of 500 to 1000 nM.

`O=C(Nc1ccncc1)c1nnn(-c2cccc(-c3ccc(F)cc3)c2)c1C1CC1` [Compound 7-311] registered an IC50 of 1000 to 3000 nM.

`CC(=O)c1cccc(-c2cccc(-n3nnc(C(=O)NC(C)c4nc5ccccc5n4C)c3C3CC3)c2)c1` (centres unmarked) [Compound 18-22] came in with an IC50 of more than 3000 nM.

In turn, `CC(=O)c1cccc(-c2cc(-n3nnc(C(=O)Nc4ccncc4)c3C3CC3)ccc2-c2c(C)nn(C)c2C)c1` [Compound 25-1, 1-(3′-acetyl-6-(1,3,5-trimethyl-1H-pyrazol-4-yl)-[1,1′-biphenyl]-3-yl)-5-cyclopropyl-N-(pyridin-4-yl)-1H-1,2,3-triazole-4-carboxamide] showed an IC50 of 1000 to 3000 nM.

As to `Cc1ccc(CNC(=O)c2nnn(-c3ccc(-c4ccc(C#N)cc4C)cc3)c2C2CC2)cn1` [Compound 7-95], the IC50 lay in the range of 100 to 500 nM.

As to `CS(=O)(=O)c1ccc(-c2ccc(-n3nnc(C(=O)Nc4ccncc4)c3C3CC3)cc2)cc1` [Compound 7-93], the 50% inhibitory concentration (IC50) lay in the range of 100 to 500 nM.

The compound `CN(C)c1ccccc1-c1ccc(-n2nnc(C(=O)Nc3ccncc3)c2C2CC2)cc1` [Compound 7-172] displayed an IC50 of 1000 to 3000 nM.

`COc1cccc(-n2nnc(C(=O)Nc3ccncc3)c2C2CC2)c1` [Compound 3-4] gave an IC50 of 1000 to 3000 nM.

On to `N#CCc1cccc(-c2cccc(-n3nnc(C(=O)Nc4ccncc4)c3C3CC3)c2)c1` [Compound 7-269], for which the IC50 was in the range of 500 to 1000 nM.

`CCn1cc(CNC(=O)c2nnn(-c3ccc(-c4ccc(C#N)cc4)cc3OC)c2C(C)C)cn1` [Compound 17-21]: the IC50 fell in the range of 100 to 500 nM.

In the case of `Cn1cc(-c2ccc(-n3nnc(C(=O)Nc4ccncc4)c3C3CC3)cc2)c(C(F)(F)F)n1` [Compound 7-217], the IC50 was more than 3000 nM.

The compound `COc1ccc(C2(NC(=O)c3nnn(-c4ccc(-c5ccc(C#N)cc5C)cc4)c3C3CC3)CC2)cn1` [Compound 9-24] returned an IC50 of 100 to 500 nM.

Take `N#Cc1cc(NC(=O)c2nnn(-c3ccc(-c4ccccc4)cc3)c2C2CC2)ccn1` [Compound 14-26]: the IC50 was 500 to 1000 nM.

With `COc1ccc(C2(NC(=O)c3nnn(-c4ccc(-c5ccc(C#N)c(F)c5)cc4)c3C3CC3)CC2)cn1` [Compound 9-35], the IC50 lay in the range of 100 to 500 nM.

As to `CCn1nc(C)c(-c2ccc(-n3nnc(C(=O)Nc4ccncc4)c3C3CC3)cc2)c1C` [Compound 7-14], the IC50 was less than 100 nM.

Regarding `CC(C)(C)n1cc(NC(=O)c2nnn(-c3ccc(-c4ccccc4)cc3)c2C2CC2)cn1` [Compound 14-2], the IC50 is more than 3000 nM.

`Cc1nn(C)c(F)c1-c1ccc(-n2nnc(C(=O)Nc3ccncc3)c2C2CC2)cc1` [Compound 7-16] displayed an IC50 of less than 100 nM.

In turn, `Cc1nn(-c2ccccc2)c(C)c1-c1ccc(-n2nnc(C(=O)NC3(c4cncc(Cl)c4)CC3)c2C2CC2)cc1` [Compound 9-8] registered an IC50 of 100 to 500 nM.

With `CC(O)c1cccc(-c2ccc(-n3nnc(C(=O)Nc4ccncc4)c3C3CC3)cc2)c1` (centres unmarked) [Compound 7-117], the IC50 was in the range of 500 to 1000 nM.

As for `Cn1ncc2c(NC(=O)c3nnn(-c4ccc(-c5ccccc5)cc4)c3C3CC3)cccc21` [Compound 14-63], the half-inhibitory concentration (IC50) lay within 1000 to 3000 nM.

Take `CN(C)S(=O)(=O)n1ccc(-c2ccc(-n3nnc(C(=O)Nc4ccncc4)c3C3CC3)cc2)n1` [Compound 7-43]: the IC50 was 100 to 500 nM.

Take `N#Cc1ccc(-c2ccc(-n3nnc(C(=O)Nc4ccncc4)c3C3CC3)cc2)c(F)c1` [Compound 7-54]: the IC50 lay in the range of 100 to 500 nM.

The compound `Cn1cc(C#N)c(-c2ccc(-n3nnc(C(=O)Nc4ccncc4)c3C3CC3)cc2)n1` [Compound 7-184] returned an IC50 of 1000 to 3000 nM.

Consider `CCn1cc(CNC(=O)c2nnn(-c3ccc(-c4ccccc4)cc3)c2C2CC2)cn1` [Compound 14-31], for which the IC50 lay within 1000 to 3000 nM.

With `CN(Cc1ccc(N2CCOCC2)cc1)C(=O)c1nnn(-c2ccc(-c3ccccc3)cc2)c1C1CC1` [Compound 14-76], the IC50 is more than 3000 nM.

`CC(=O)c1ccc(-c2ccc(-n3nnc(C(=O)Nc4ccncc4)c3C3CC3)cc2)c(C)c1` [Compound 7-42] came in with an IC50 of 100 to 500 nM.

`Cc1cc(-c2ccc(-n3nnc(C(=O)Nc4ccncc4)c3C3CC3)cc2)n(C)n1` [Compound 7-132]: the IC50 was 500 to 1000 nM.

`CC(C)c1c(C(=O)NC2(c3cccnc3)CC2)nnn1-c1ccc(-c2ccc(C#N)nc2)cc1` [Compound 18-29] displayed an IC50 of more than 3000 nM.

`O=C(Nc1ccncc1)c1nnn(-c2cc3ccccc3s2)c1C1CC1` [Compound 4-8] had an IC50 of 1000 to 3000 nM.

As to `O=C(Nc1ccncc1)c1nnn(-c2ccc(-c3ccccc3OC(F)(F)F)cc2)c1C1CC1` [Compound 7-186], the IC50 is 1000 to 3000 nM.

In turn, `CCn1nc(C)cc1NC(=O)c1nnn(-c2ccc(-c3ccccc3)cc2)c1C1CC1` [Compound 14-12] had an IC50 of more than 3000 nM.
